The record followed here is patent US12410323B2, “Potent antifouling agents albofungins target multiple fouling organisms” (The Hong Kong University of Science and Technology, priority 2021, dated 2025).

The subject of data set [1] is Staphylococcus sp. Z01. Description: Bacterial growth inhibition (antibacterial assay, MIC). Particulars: marine broth, overnight. The class given is cell-based. The protocol:
(§1) The antibacterial activities of albofungins were tested following specific protocols (She et al., 2020). Marine broth was used as the test medium for the marine bacteria, and the MHB broth was used as the test medium for the pathogenic bacteria. The plate was kept at 22° C. or 30° C. overnight, and the minimum inhibitory concentration (MIC) is the lowest concentration that the drug prevents the visible growth of bacteria. The bacteria which have successfully formed biofilms were further used for antibiofilm formation assays. Different concentrations of albofungin compounds were added to each well. Biofilm formation was assessed through the MTT assay as previously described. […] Data were analyzed using one-way ANOVA to detect significant differences and standard deviation (SD) was calculated using GraphPad Prism 9. All the assays were performed in triplicate.

Data set [2] relates to MCCC 1A11723 Psychrobacter nivimaris. Described as above. The class given is cell-based. As to conditions: marine broth, overnight. The method, then: as §1
For data set [3], the system named is Staphylococcus aureus 04. Described as above. The class given is cell-based. As to conditions: marine broth, overnight. The method, then: as §1
In data set [4] the test system is MCCC 1A04899 Sulfitobacter pontiacus. The description is as above. The class given is cell-based. The method, then: as §1
The test system of data set [5] is MCCC 1A01390 Pseudomonas pachastrellae. The description is as above. The class given is cell-based. As to conditions: Halopseudomonas pachastrellae; marine broth, overnight. The method, then: as §1
Data set [6] relates to Micrococcus sp. Z02. The data set is described as above. Particulars: marine broth, overnight. The class given is cell-based. The protocol:
as §1

The subject of data set [7] is Staphylococcus sp. Z01. Description: Biofilm inhibition assay (MTT), marine bacteria. Particulars: lowest concentration inhibiting 90% of biofilm formation; 24 h. The class given is cell-based. The method, then: (§2) The ability of the bacteria to form static biofilms was tested. Marine bacteria were cultured overnight in marine broth at 22° C. with 220 rpm agitation (Pseudomonas pachastrellae MCCC 1A01390, Sulfitobacter pontiacus MCCC 1A04899 and Psychrobacter nivimaris MCCC 1A 11723) and at 30° C. (Staphylococcus aureus B04, Staphylococcus sp. Z01 and Micrococcus sp. Z02) and then diluted to 10^7 CFU mL^−1 in marine broth supplemented with 1% of glucose; pathogenic bacteria was cultured overnight in LB broth with 1% glucose with 220 rpm at 37° C. Afterwards, 200 μL of the diluted solution were added to each well of a 96-well plate (Corning Inc., New York, USA) and was then incubated at 22° C. or 30° C. for 24 h. The culture medium, planktonic cells and loosely adhered bacteria were removed by dual washing with a phosphate-buffered saline (PBS) buffer, and the firmly attached bacteria were incubated with 20 μL of MTT (5 mg mL^−1) at 37° C. for 3 h. The supernatant was discarded, and formazan was dissolved in 150 μL of DMSO. Absorbance was measured using the Multiskan™ FC microplate photometer (Thermo Fisher Scientific, Waltham, USA) under 570 nm, and MRSA ATCC 43300 was used as a positive control. All the experiments were performed in triplicate.
as §1

Data set [8] deals with MCCC 1A11723 Psychrobacter nivimaris. Description: Biofilm inhibition assay (MTT), marine bacteria. The class given is cell-based. As to conditions: lowest concentration inhibiting 90% of biofilm formation; 24 h. The protocol:
as §2, §1

Data set [9] concerns Staphylococcus aureus 04. Description: Biofilm inhibition assay (MTT), marine bacteria. The class given is cell-based. Particulars: lowest concentration inhibiting 90% of biofilm formation; 24 h. The method, then: as §2, §1
The test system of data set [10] is MCCC 1A04899 Sulfitobacter pontiacus. Description: Biofilm inhibition assay (MTT), marine bacteria. The class given is cell-based. Particulars: lowest concentration inhibiting 90% of biofilm formation; 24 h. The method, then:
as §2, §1

For data set [11], the system named is MCCC 1A01390 Pseudomonas pachastrellae. Description: Biofilm inhibition assay (MTT), marine bacteria. The class given is cell-based. Particulars: lowest concentration inhibiting 90% of biofilm formation; 24 h. The protocol: as §2, §1
In data set [12] the test system is Micrococcus sp. Z02. Description: Biofilm inhibition assay (MTT), marine bacteria. The class given is cell-based. As to conditions: lowest concentration inhibiting 90% of biofilm formation; 24 h. The method, then:
as §2, §1

The test system of the next data set is MRSA ATCC 43300. Description: Biofilm inhibition assay (MTT), pathogenic bacteria. The class given is cell-based, Staphylococcus aureus. As to conditions: lowest concentration inhibiting 90% of biofilm formation. The protocol: as §2
as §1, with “All the assays were performed in triplicate.” left out

Data set [13] is described as follows: Release rate of albofungin from coatings into artificial seawater (HPLC). The class given is physicochemical. As to conditions: for highest release rate: first day, artificial seawater. The protocol:
Around 1 g of albofungin compound was isolated, purified and analyzed using HPLC to guarantee over 95% purity. Albofungin-based hydrolysable and degradable copolymer coating was prepared as follows: methyl methacrylate (MMA) and tributylsilyl methacrylate (TBSM) copolymer (PMSMO) was synthesized via radical ring-opening polymerization (Zhou et al., 2015). For 5 wt % of albofungin-based coating, 0.95 g of PMSMO and 0.05 g of albofungin were dissolved in xylene and tetrahydrofuran (v:v=1:2) and mixed vigorously at room temperature. The solution was then coated on the PVC panels (4×7 cm^2) and dried at room temperature for 7 days (Ma et al., 2017). Other coatings with different albofungin concentrations (10 and 15 wt %) were prepared using the same procedure. The coating with PMSMO only was used as a […]. Each concentration was prepared for three biological replicates. The field test was conducted from March to April 2021 in a fish farm at Yung Shue O, Hong Kong (22° 24′N, 114° 21′E), which was heavily fouled all year round. The PVC panel was submerged into seawater at a depth of 0.5 meters for 2 months, retrieved, washed with seawater, and photographed. The area covered by biofoulers was calculated by Image J (Fiji-2.2.0) (Schindelin, et al., 2012). One-way ANOVA was used to compare the albofungin-coated panels and the control panels. The release rate of albofungin under static conditions was determined by measuring the compound concentration with HPLC. Albofungin-based coatings were applied onto a PVC panel (20×75 mm^2) and submerged in artificial seawater (ASW). After 7 days, the panel was transferred to an individual container with 100 mL of ASW. After 24 h of immersion, 10 mL of the seawater was taken out of the container and extracted with the same volume of ethyl acetate three times. After drying under the SpeedVac vacuum concentrators, the extracts were dissolved in 100 μL of methanol and then subjected to HPLC using a reversed-phase system (Waters 2695) with a Phenomenex Luna C18 column connected to a UV detector at 300 nm. The unique UV absorption of albofungin and retention time were determined, with the amount being calculated from the established standard curves using peak areas plotted against known standard quantities.

The structures appear in SMILES notation. Converted amounts (≈) assume the structure as drawn.

Turning to `CO[C@@H]1CC[C@H](O)c2c1oc1c3c4c(c(O)c1c2=O)-c1c(cc2cc(C)n(N)c(=O)c2c1O)C[C@H]4OCO3` [Albofungin (1), albofungin], the MIC is 0.0008 µg/mL (≈ 0.00154 µM) against Staphylococcus sp. Z01 [1]; more than 20 µg/mL in [2]; 0.0032 µg/mL (≈ 0.00615 µM) against Staphylococcus aureus 04 [3]; 0.032 µg/mL (≈ 0.0615 µM) in data set [4]; 0.5 µg/mL (≈ 0.961 µM) in data set [5]; 0.0032 µg/mL (≈ 0.00615 µM) with Micrococcus sp. Z02 [6]. Besides, the MBIC90 lay in the range of 0.63 to 1.25 ng/mL in the data set with Staphylococcus sp. Z01 [7]; 10 to 20 µg/mL in data set [8]; 15.63 to 31.25 ng/mL in the data set with Staphylococcus aureus 04 [9]; 0.13 to 0.25 µg/mL in data set [10]; 0.25 to 0.50 µg/mL in data set [11]; 31.25 to 62.50 ng/mL in the data set with Micrococcus sp. Z02 [12]. Further, the MBIC90 with MRSA ATCC 43300 lay in the range of 0.01 to 0.03 µg/mL. Besides, the highest release rate in [13] (5 wt % albofungin coating) is 0.86 μg day-1 cm^−2; in data set [13] (10 wt % albofungin coating), 1.1 μg day-1 cm^−2; in data set [13] (15 wt % albofungin coating) it was 1.4 μg day-1 cm^−2. The “release rate decreased to” value in [13] (15, 10 and 5 wt % coatings, time-dependent, within 35 days) was “approximately 0.08 μg day-1 cm^−2”.

A word on the MIC: it is the least concentration at which growth counts as inhibited. High values mean a less susceptible organism, low ones a more susceptible organism.
